Legend:
[1] = biological target: Alpha-2B adrenergic receptor (Homo sapiens, UniProt P18089); assay: GPCRScan assay: inhibition of Alpha2B; design: radioligand conc. used [nm] 1.5 – 2.0, parental cells HEKT
[2] = biological target: Sodium-dependent noradrenaline transporter (Homo sapiens) (UniProt P23975); settings: Compound concentration 10.0 uM
[3] = biological target: 5-hydroxytryptamine receptor 6 (Homo sapiens) (UniProt P50406); settings: Compound concentration 10.0 uM
[4] = biological target: 5-hydroxytryptamine receptor 2B (Homo sapiens, UniProt P41595); assay: GPCRScan assay: inhibition of 5-HT2B; design: radioligand conc. used [nm] 1.0 – 2.0, parental cells stable HEK
[5] = biological target: Muscarinic acetylcholine receptor M5 (Homo sapiens) (UniProt P08912); settings: Compound concentration 10.0 uM
[6] = biological target: Platelet-derived growth factor receptor (Homo sapiens) (UniProt P09619+P16234); assay: Platlet-derived growth factor receptor CEREP ligand profiling; assay type: protein-complex assay; settings: Compound concentration 10.0 uM
[7] = biological target: T1, D(4) dopamine receptor (Homo sapiens) (UniProt P21917); assay: Dopamine D4 receptor (h) CEREP ligand profiling; settings: Compound concentration 10.0 uM
T1 sequence (whole entry): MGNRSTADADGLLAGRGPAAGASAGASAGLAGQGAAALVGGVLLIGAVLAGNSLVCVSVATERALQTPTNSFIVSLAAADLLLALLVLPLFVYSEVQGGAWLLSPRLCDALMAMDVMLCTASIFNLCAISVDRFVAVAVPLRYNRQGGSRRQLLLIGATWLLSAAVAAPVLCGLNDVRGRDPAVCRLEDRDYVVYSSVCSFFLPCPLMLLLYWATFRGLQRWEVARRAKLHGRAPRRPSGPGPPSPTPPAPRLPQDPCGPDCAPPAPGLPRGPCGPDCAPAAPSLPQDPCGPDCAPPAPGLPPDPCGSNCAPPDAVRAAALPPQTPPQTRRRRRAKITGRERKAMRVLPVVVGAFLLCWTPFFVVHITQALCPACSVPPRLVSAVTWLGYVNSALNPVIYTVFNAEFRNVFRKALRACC

[8] = biological target: 5-hydroxytryptamine receptor 7 (Homo sapiens) (UniProt P34969); assay: 5-Hydroxytryptamine7 (h) CEREP ligand profiling; settings: Compound concentration 10.0 uM
Sodium channel (site 2) = Sodium channel (site 2) (Homo sapiens, UniProt P35498+P35499+Q01118+Q14524+Q15858+Q99250+Q9NY46+Q9UI33+Q9UQD0+Q9Y5Y9); assay: Na+ channel (site 2) CEREP ligand profiling; assay type: protein assay; settings: compound concentration 10 uM
[9] = biological target: T2, 5-hydroxytryptamine receptor 3A (Homo sapiens) (UniProt P46098); assay: 5-Hydroxytryptamine3 CEREP ligand profiling; settings: Compound concentration 10.0 uM
T2 sequence (whole entry): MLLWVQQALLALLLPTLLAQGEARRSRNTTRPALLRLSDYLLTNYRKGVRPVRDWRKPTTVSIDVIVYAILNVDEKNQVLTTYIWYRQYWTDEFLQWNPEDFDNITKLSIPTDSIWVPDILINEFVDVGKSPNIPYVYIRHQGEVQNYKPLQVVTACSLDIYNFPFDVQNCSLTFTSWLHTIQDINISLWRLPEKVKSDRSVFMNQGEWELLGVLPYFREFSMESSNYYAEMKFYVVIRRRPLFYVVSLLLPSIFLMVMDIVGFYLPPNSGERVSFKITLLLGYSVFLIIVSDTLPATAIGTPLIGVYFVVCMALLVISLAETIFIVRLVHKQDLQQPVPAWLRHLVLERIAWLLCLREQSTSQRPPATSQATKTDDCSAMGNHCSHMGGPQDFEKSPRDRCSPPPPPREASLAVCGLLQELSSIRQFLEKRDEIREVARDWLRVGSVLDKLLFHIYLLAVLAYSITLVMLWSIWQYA

[10] = biological target: Muscarinic acetylcholine receptor M1 (Homo sapiens) (UniProt P11229); assay: Muscarinic M1 receptors (h) CEREP ligand profiling; settings: Compound concentration 10.0 uM
[11] = biological target: Endothelin-1 receptor (Homo sapiens) (UniProt P25101); settings: Compound concentration 10.0 uM
[12] = biological target: P2X receptor (Rattus norvegicus) (UniProt P51579+P49653+P51578+Q64663+P47824+P51577+P49654); assay: P2X-purinergic receptor CEREP ligand profiling; assay type: protein assay; settings: Compound concentration 10.0 uM
[13] = biological target: Prostacyclin receptor (Homo sapiens) (UniProt P43119); assay: Prostaglandin I2 receptor CEREP ligand profiling; settings: Compound concentration 10.0 uM
[14] = GABA receptor (non-selective) CEREP ligand profiling; settings: Compound concentration 10.0 uM
[15] = biological target: Type-1 angiotensin II receptor (Homo sapiens) (UniProt P30556); assay: Angiotensin AT1 receptor (h) CEREP ligand profiling; settings: Compound concentration 10.0 uM
[16] = biological target: Substance-K receptor (Homo sapiens) (UniProt P21452); assay: Neurokinin A receptor (h) CEREP ligand profiling; settings: Compound concentration 10.0 uM
Sodium channel (site 1) = Sodium channel (site 1) (Homo sapiens, UniProt P35498+P35499+Q01118+Q14524+Q15858+Q99250+Q9NY46+Q9UI33+Q9UQD0+Q9Y5Y9); assay: Na+ channel (site1) CEREP ligand profiling; assay type: protein assay; settings: compound concentration 10 uM
[17] = biological target: Vasopressin V1a receptor (Homo sapiens) (UniProt P37288); assay: Vasopresine V1a receptor (h) CEREP ligand profiling; settings: Compound concentration 10.0 uM
[18] = biological target: GABA-A receptor; anion channel (Homo sapiens) (UniProt P14867+P47870+P18507+P28472+P48169+Q99928+Q9UN88+P34903+O00591+O14764+Q8N1C3+P18505+P78334+P47869+P31644+Q16445); assay: Benzodiazepine (central) CEREP ligand profiling; assay type: protein-complex assay; settings: Compound concentration 10.0 uM
[19] = biological target: D(1A) dopamine receptor (Homo sapiens) (UniProt P21728); assay: Dopamine D1 receptor (h) CEREP ligand profiling; settings: Compound concentration 10.0 uM
[20] = biological target: Translocator protein (Rattus norvegicus) (UniProt P16257); assay: Benzodiazepine (peripheral) CEREP ligand profiling; settings: Compound concentration 10.0 uM
[21] = biological target: Somatostatin receptor (Homo sapiens) (UniProt P35346+P30874+P31391+P30872+P32745); assay: Somatostatin receptor CEREP ligand profiling; assay type: protein assay; settings: Compound concentration 10.0 uM
Mu-type opioid receptor = Mu-type opioid receptor (Homo sapiens, UniProt P35372); assay: mu-Opioid receptor (h) CEREP ligand profiling; settings: Compound concentration 10.0 uM
[22] = biological target: Muscarinic acetylcholine receptor M5 (Homo sapiens) (UniProt P08912); assay: Muscarinic M5 receptors (h) CEREP ligand profiling; settings: Compound concentration 10.0 uM
[23] = biological target: Cannabinoid receptor 1 (Homo sapiens) (UniProt P21554); assay: Cannabinoid CB1 receptor (h) CEREP ligand profiling; settings: Compound concentration 10.0 uM
[24] = biological target: Vasoactive intestinal peptide receptor (Homo sapiens) (UniProt P41587+P32241+P41586); assay: Vasoactive intestinal peptide receptor CEREP ligand profiling; assay type: protein assay; settings: Compound concentration 10.0 uM
[25] = biological target: Galanin receptor (Homo sapiens) (UniProt O60755+O43603+P47211); assay: Galanin receptor (h) CEREP ligand profiling; assay type: protein assay; settings: Compound concentration 10.0 uM
[26] = biological target: Endothelin receptor type B (Homo sapiens) (UniProt P24530); settings: Compound concentration 10.0 uM
[27] = biological target: Neuropeptide Y receptor type 2 (Homo sapiens) (UniProt P49146); assay: Y2 receptor CEREP ligand profiling; settings: Compound concentration 10.0 uM
[28] = biological target: Beta-1 adrenergic receptor (Homo sapiens) (UniProt P08588); settings: Compound concentration 10.0 uM

Chain of Muscarinic acetylcholine receptor M5 (Homo sapiens) (P08912 whole entry): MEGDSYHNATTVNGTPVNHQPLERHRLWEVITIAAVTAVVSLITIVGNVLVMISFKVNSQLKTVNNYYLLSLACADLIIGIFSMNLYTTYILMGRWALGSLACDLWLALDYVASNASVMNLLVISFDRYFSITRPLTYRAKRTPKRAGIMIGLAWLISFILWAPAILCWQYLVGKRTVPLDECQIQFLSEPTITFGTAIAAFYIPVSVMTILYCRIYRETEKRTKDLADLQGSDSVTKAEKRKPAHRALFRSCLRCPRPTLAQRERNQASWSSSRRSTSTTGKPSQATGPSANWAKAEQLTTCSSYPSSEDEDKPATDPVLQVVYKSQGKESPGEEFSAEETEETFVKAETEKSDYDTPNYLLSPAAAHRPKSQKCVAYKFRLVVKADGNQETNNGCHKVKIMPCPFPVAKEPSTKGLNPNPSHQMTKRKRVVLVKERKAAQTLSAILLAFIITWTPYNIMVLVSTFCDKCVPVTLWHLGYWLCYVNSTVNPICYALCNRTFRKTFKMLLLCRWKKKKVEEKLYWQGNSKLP
Chain of 5-hydroxytryptamine receptor 2B (P41595 whole entry): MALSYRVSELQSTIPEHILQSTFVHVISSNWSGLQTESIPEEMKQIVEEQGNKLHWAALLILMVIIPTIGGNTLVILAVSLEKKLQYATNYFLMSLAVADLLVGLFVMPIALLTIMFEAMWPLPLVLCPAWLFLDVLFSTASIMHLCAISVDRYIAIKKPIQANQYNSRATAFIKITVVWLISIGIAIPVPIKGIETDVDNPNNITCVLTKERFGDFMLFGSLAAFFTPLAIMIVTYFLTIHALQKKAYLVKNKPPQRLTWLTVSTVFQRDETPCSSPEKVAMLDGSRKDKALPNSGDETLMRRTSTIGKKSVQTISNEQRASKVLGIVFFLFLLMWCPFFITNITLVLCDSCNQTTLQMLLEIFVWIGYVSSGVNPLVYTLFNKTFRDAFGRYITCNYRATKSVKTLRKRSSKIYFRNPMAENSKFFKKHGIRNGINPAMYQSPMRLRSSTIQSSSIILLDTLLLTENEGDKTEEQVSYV
Chain of Alpha-2B adrenergic receptor (P18089 whole entry): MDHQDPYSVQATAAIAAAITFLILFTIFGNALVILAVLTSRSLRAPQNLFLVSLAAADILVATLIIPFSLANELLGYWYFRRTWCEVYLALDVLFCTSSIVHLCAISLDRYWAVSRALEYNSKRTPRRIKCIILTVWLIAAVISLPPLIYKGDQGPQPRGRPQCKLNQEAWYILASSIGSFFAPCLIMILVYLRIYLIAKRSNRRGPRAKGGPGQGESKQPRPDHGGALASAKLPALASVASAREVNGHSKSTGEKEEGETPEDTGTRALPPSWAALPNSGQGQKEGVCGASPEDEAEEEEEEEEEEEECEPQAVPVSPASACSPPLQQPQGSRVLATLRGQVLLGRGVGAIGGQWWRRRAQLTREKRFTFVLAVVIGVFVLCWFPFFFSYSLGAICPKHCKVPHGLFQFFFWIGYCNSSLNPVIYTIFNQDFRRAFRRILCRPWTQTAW
Chain of Endothelin-1 receptor (Homo sapiens) (P25101 whole entry): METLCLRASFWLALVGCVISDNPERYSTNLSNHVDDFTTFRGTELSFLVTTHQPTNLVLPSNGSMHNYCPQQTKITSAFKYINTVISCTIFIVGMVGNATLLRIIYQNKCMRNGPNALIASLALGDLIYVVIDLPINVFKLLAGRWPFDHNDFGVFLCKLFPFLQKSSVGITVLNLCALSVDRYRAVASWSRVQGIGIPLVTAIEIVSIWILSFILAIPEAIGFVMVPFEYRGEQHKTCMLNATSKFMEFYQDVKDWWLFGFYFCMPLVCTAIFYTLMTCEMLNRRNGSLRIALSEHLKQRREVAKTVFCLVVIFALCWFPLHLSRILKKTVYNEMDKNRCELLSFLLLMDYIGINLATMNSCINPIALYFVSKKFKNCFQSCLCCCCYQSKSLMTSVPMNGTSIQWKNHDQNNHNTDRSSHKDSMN
Chain of Neuropeptide Y receptor type 2 (Homo sapiens) (P49146 whole entry): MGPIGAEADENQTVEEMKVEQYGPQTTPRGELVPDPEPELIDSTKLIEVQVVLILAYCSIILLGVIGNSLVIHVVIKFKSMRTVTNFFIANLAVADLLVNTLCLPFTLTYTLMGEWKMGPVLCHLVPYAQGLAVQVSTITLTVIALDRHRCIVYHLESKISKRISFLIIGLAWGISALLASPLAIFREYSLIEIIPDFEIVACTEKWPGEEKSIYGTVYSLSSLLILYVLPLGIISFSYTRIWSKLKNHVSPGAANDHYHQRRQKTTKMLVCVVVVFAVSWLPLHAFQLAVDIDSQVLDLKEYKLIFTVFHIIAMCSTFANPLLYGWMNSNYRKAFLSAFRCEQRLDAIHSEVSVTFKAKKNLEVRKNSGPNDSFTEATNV
Chain of 5-hydroxytryptamine receptor 7 (Homo sapiens) (P34969 whole entry): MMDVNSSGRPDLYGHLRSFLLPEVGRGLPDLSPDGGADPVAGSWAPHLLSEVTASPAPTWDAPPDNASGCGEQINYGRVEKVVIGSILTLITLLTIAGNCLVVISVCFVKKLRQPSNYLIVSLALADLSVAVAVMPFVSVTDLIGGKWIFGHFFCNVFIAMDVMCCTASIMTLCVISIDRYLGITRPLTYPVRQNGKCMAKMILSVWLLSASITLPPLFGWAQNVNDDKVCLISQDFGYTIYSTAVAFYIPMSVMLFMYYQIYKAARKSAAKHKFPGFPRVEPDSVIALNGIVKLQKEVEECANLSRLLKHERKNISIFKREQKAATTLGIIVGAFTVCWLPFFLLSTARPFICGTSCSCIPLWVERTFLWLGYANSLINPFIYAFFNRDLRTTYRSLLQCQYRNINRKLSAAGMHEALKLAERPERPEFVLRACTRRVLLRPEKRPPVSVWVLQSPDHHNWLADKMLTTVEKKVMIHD
Chain of D(1A) dopamine receptor (Homo sapiens) (P21728 whole entry): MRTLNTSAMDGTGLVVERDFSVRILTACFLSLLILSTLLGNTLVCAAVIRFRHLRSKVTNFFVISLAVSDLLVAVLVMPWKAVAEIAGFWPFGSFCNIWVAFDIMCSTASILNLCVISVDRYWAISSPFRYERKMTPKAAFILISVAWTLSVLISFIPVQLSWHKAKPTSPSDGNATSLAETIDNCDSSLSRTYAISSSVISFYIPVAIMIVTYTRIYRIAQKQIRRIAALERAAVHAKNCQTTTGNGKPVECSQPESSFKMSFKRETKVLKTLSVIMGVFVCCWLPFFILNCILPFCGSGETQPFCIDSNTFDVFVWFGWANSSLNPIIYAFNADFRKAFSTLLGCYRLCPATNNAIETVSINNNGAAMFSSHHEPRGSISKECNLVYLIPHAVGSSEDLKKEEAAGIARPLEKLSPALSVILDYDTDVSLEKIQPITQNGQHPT
Chain of Sodium-dependent noradrenaline transporter (Homo sapiens) (P23975 whole entry): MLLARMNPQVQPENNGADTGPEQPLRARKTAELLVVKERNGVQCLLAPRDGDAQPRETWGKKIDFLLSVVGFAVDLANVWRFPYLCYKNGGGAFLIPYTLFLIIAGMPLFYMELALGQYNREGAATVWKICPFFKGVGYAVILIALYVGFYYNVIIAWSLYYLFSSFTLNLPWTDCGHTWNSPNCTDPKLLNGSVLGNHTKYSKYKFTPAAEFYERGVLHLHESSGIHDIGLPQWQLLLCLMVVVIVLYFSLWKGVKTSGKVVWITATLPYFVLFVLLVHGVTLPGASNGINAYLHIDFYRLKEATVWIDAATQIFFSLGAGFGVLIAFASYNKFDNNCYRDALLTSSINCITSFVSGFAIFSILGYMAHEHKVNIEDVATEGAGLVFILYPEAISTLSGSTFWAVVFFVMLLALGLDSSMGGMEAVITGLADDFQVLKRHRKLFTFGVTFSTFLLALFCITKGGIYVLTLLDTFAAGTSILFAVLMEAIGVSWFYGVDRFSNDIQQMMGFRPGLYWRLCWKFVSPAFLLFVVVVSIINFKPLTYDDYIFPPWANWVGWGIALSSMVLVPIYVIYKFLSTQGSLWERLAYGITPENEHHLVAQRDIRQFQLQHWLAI
Chain of Galanin receptor (Homo sapiens) (O43603 whole entry, looked up): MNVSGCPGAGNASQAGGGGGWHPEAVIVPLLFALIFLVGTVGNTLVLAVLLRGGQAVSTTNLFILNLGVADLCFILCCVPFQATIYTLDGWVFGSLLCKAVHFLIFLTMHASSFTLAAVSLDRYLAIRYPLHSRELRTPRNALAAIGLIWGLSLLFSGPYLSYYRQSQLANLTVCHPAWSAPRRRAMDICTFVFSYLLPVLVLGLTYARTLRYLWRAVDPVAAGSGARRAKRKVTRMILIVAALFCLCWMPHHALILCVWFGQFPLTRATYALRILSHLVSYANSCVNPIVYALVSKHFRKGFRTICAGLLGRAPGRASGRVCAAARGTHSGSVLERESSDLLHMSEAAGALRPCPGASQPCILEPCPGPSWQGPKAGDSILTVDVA
Chain of Galanin receptor (Homo sapiens) (O60755 whole entry, looked up): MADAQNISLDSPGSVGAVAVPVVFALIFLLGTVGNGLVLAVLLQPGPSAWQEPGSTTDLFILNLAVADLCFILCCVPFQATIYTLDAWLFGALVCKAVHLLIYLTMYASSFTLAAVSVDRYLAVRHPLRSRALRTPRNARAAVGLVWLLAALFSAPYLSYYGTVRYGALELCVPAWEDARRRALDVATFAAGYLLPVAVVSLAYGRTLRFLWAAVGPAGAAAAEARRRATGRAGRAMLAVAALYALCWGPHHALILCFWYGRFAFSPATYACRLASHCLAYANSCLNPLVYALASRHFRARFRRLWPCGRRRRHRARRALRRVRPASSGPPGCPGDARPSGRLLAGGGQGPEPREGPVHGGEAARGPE
Chain of Galanin receptor (Homo sapiens) (P47211 whole entry, looked up): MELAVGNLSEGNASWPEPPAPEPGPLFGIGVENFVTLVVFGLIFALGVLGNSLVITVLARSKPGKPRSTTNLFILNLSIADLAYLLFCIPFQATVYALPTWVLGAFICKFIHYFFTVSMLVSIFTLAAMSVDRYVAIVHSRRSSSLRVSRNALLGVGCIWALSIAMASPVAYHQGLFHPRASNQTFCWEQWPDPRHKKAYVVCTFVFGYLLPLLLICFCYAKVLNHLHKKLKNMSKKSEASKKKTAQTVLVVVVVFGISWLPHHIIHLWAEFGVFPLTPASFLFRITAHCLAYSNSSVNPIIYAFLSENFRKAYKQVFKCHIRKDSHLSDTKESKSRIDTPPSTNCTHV

CCCCN(CCCC)C(=O)CN1C[C@@H](c2cc(OC)c3c(c2)OCO3)[C@H](C(=O)O)[C@H]1CC(C)(C)CCC [A-545]
4.64 µM: Ki ([1]; read-out: Ki)
inactive: inhibition [2] 38.5% | inhibition [3] 33.5% | inhibition [5] 1.1%
6.52 µM: Ki ([4]; read-out: Ki)
4.17 µM: Ki ([1]; read-out: pKi (converted))
5.82 µM: Ki ([4]; read-out: pKi (converted))

CCCCN(CCCC)C(=O)CN1C[C@H](c2cc(OC)c3c(c2)OCO3)[C@@H](C(=O)O)[C@@H]1CC(C)(C)CCC [ABT-546]
inactive: inhibition [6] < 10% | inhibition [7] < 10% | inhibition [8] < 10% | inhibition [9] < 10% | inhibition [10] < 10% | inhibition [11] 98% | inhibition [12] 37% | inhibition [13] 15% | inhibition [14] < 10% | inhibition [15] < 10% | inhibition [16] < 10% | inhibition [17] < 10% | inhibition [18] < 10% | inhibition [19] 14% | inhibition [20] < 10% | inhibition [21] < 10% | inhibition (Mu-type opioid receptor) 17% | inhibition [22] < 10% | inhibition [23] < 10% | inhibition [24] < 10% | inhibition [25] < 10% | inhibition [26] 56% | inhibition [27] < 10% | inhibition [28] -6.6%
22% (not active): inhibition at 10 µM (Sodium channel (site 1))
< 10% (not active): inhibition at 10 µM (Sodium channel (site 2))

Source: ChEMBL document CHEMBL4507258 (2021)
